The structures appear in SMILES notation. A value given as a limit tells only on which side of the number the result lay.

A word on the GI50: it is the concentration that inhibits growth by half.

The test system of one data set is U-251. Briefly: Anticancer activity against human U-251 cells assessed as cell growth inhibition measured after 48 hrs by sulforhodamine B assay. The data set is classed as functional.
The subject of a further data set is 786-0. Put plainly: Anticancer activity against human 786-0 cells assessed as cell growth inhibition measured after 48 hrs by sulforhodamine B assay. The data set is classed as functional. Background: In SRB staining, fixed cells bind dye roughly in proportion to their protein.
The test system of the next data set is K562. Put plainly: Anticancer activity against human K562 cells assessed as cell growth inhibition measured after 48 hrs by sulforhodamine B assay. The data set is classed as functional.
A further data set has as its system NCI-H460. Briefly: Anticancer activity against human NCI-H460 cells assessed as cell growth inhibition measured after 48 hrs by sulforhodamine B assay. In kind it is functional.
The subject of the next data set is MCF7. Briefly: Anticancer activity against human MCF7 cells assessed as cell growth inhibition measured after 48 hrs by sulforhodamine B assay. The data set is classed as functional.
The test system of another data set is PC-3. Briefly: Anticancer activity against human PC-3 cells assessed as cell growth inhibition measured after 48 hrs by sulforhodamine B assay. The data set is classed as functional.
The subject of the next data set is HaCaT. Briefly: (§1) Cytotoxicity against human HaCaT cells assessed as cell growth inhibition measured after 48 hrs by sulforhodamine B assay. The data set is classed as cell-based. The note with it: hacat, 48 h.
The next data set relates to HT-29. Briefly: Anticancer activity against human HT-29 cells assessed as cell growth inhibition measured after 48 hrs by sulforhodamine B assay. The data set is classed as functional.
A further data set relates to OVCAR-3. Briefly: Anticancer activity against human OVCAR-3 cells assessed as cell growth inhibition measured after 48 hrs by sulforhodamine B assay. In kind it is functional.
Data set [1] is described as follows: as §1. The data set is classed as cell-based. As to conditions: HaCaT cells.

Consider `CCOC(=O)c1nn(-c2ccccc2)c(-c2ccc(F)cc2)c1CNC(C)(C)C`, for which the GI50 was above 632 µM with U-251 (Homo sapiens, U-251, 48 h); above 632 µM in the data set with 786-0 (Homo sapiens, 786-0, 48 h); 75.7 µM in the data set on K562 (48 h); 365 µM in the data set with NCI-H460 (48 h); 306 µM in the data set on MCF7 (Homo sapiens, MCF7, 48 h); 69.3 µM with PC-3 (Homo sapiens, PC-3, 48 h). The GI50 in the data set on HaCaT stood at 74.5 µM; in the data set on HT-29 (48 h) it was 65.4 µM; in the data set on OVCAR-3 (48 h) it was 0.013 µM.

As to `CCOC(=O)c1nn(-c2ccc(Cl)cc2)c(-c2ccc(F)cc2)c1CNC(C)(C)C`, the concentration for 50% growth inhibition (GI50) is 519 µM in the data set on U-251 (Homo sapiens, U-251, 48 h); above 582 µM in the data set on 786-0 (Homo sapiens, 786-0, 48 h); 78.5 µM in the data set with K562 (48 h); 344 µM in the data set with NCI-H460 (Homo sapiens, NCI-H460, 48 h); above 582 µM in the data set with MCF7 (Homo sapiens, MCF7, 48 h); 405 µM in the data set on PC-3 (Homo sapiens, PC-3, 48 h). Moreover, the 50% growth inhibitory concentration (GI50) in the data set on HaCaT came out at 24.7 µM; with HT-29 (48 h) it was 87.1 µM; with OVCAR-3 (48 h), 159 µM.

For the compound `CC(C)(C)NCc1c(C(=O)O)nn(-c2ccccc2)c1-c1ccc(F)cc1`, the GI50 in the data set with U-251 (Homo sapiens, U-251, 48 h) was above 681 µM; in the data set on 786-0 (Homo sapiens, 786-0, 48 h) it was above 681 µM; in the data set with K562 (Homo sapiens, K562, 48 h) it was above 681 µM; in the data set with NCI-H460 (Homo sapiens, NCI-H460, 48 h) it was above 681 µM; in the data set with MCF7 (Homo sapiens, MCF7, 48 h), above 681 µM; in the data set on PC-3 (Homo sapiens, PC-3, 48 h), above 681 µM. For the same compound, the GI50 with HT-29 (Homo sapiens, HT-29, 48 h) was above 681 µM. Besides, the GI50 at 48 h in data set [1] was above 681 µM.

With `CCOC(=O)c1nn(-c2ccc(Cl)cc2)c(-c2ccc(OC)cc2)c1CNC(C)(C)C`, the concentration for 50% growth inhibition (GI50) was 431 µM with U-251 (Homo sapiens, U-251, 48 h); 119 µM in the data set with 786-0 (48 h); 6.1 µM in the data set with K562 (48 h); 27 µM in the data set on NCI-H460 (48 h); 238 µM with MCF7 (48 h); 210 µM with PC-3 (48 h). The GI50 in the data set with HaCaT stood at 60.1 µM; in the data set with HT-29 (48 h), 45.3 µM; with OVCAR-3 (48 h), 35.4 µM.

Take `CC(C)(C)NCc1c(C(=O)O)nn(-c2ccc(Cl)cc2)c1-c1ccc(F)cc1`: the concentration for 50% growth inhibition (GI50) in the data set on U-251 (Homo sapiens, U-251, 48 h) was above 623 µM; with 786-0 (Homo sapiens, 786-0, 48 h), 204 µM; in the data set with K562 (Homo sapiens, K562, 48 h) it was above 623 µM; in the data set on NCI-H460 (Homo sapiens, NCI-H460, 48 h), above 623 µM; in the data set with MCF7 (Homo sapiens, MCF7, 48 h), 270 µM; in the data set with PC-3 (Homo sapiens, PC-3, 48 h), above 623 µM. The GI50 in the data set on HT-29 (Homo sapiens, HT-29, 48 h) is above 623 µM; in the data set with OVCAR-3 (Homo sapiens, OVCAR-3, 48 h), 116 µM. In [1], the 50% growth inhibitory concentration (GI50) at 48 h worked out at 28.7 µM.

For the compound `CC(C)(C)NCc1c(C(=O)O)nn(-c2ccccc2)c1-c1ccc(Cl)cc1`, the GI50 with U-251 (Homo sapiens, U-251, 48 h) was above 652 µM; with 786-0 (Homo sapiens, 786-0, 48 h), above 652 µM; with K562 (Homo sapiens, K562, 48 h), 364 µM; in the data set with NCI-H460 (Homo sapiens, NCI-H460, 48 h), 70.5 µM; in the data set with MCF7 (Homo sapiens, MCF7, 48 h) it was above 652 µM; with PC-3 (Homo sapiens, PC-3, 48 h), 145 µM. For the same compound, the GI50 is 353 µM with HT-29 (Homo sapiens, HT-29, 48 h) and above 652 µM in the data set with OVCAR-3 (Homo sapiens, OVCAR-3, 48 h). Moreover, in data set [1], the GI50 at 48 h is above 652 µM.

With `CC(C)(C)NCc1c(C(=O)O)nn(-c2ccccc2)c1-c1ccc(Br)cc1`, the GI50 in the data set on U-251 (Homo sapiens, U-251, 48 h) was 126 µM; in the data set with 786-0 (Homo sapiens, 786-0, 48 h), above 585 µM; in the data set with K562 (Homo sapiens, K562, 48 h), above 585 µM; in the data set with NCI-H460 (Homo sapiens, NCI-H460, 48 h), above 585 µM; in the data set on MCF7 (Homo sapiens, MCF7, 48 h), 293 µM; in the data set with PC-3 (Homo sapiens, PC-3, 48 h), above 585 µM. For the same compound, the GI50 is above 585 µM in the data set on HT-29 (Homo sapiens, HT-29, 48 h) and above 585 µM in the data set on OVCAR-3 (Homo sapiens, OVCAR-3, 48 h). The GI50 at 48 h in data set [1] came to 366 µM.

As for `CC(C)(C)NCc1c(C(=O)O)nn(-c2ccc(Cl)cc2)c1-c1ccc(Br)cc1`, the GI50 was above 542 µM with U-251 (Homo sapiens, U-251, 48 h); 542 µM with 786-0 (Homo sapiens, 786-0, 48 h); 297 µM in the data set on K562 (Homo sapiens, K562, 48 h); above 542 µM in the data set on NCI-H460 (Homo sapiens, NCI-H460, 48 h); 221 µM in the data set on MCF7 (Homo sapiens, MCF7, 48 h); above 542 µM with PC-3 (Homo sapiens, PC-3, 48 h). Also, the GI50 in the data set on HT-29 (Homo sapiens, HT-29, 48 h) is above 542 µM; in the data set on OVCAR-3 (Homo sapiens, OVCAR-3, 48 h), 513 µM. Also, in data set [1], the 50% growth inhibitory concentration (GI50) at 48 h was above 542 µM.

Consider `CCOC(=O)c1nn(-c2ccc(Cl)cc2)c(-c2ccc(C)cc2)c1CNC(C)(C)C`, for which the GI50 is 151 µM with U-251 (48 h); above 588 µM in the data set on 786-0 (Homo sapiens, 786-0, 48 h); 106 µM in the data set with K562 (48 h); 277 µM with NCI-H460 (Homo sapiens, NCI-H460, 48 h); 141 µM in the data set on MCF7 (48 h); 249 µM in the data set with PC-3 (48 h). The GI50 in the data set on HaCaT worked out at 144 µM; with HT-29 (48 h), 106 µM; in the data set on OVCAR-3 (48 h), 49.2 µM.

As for `CCOC(=O)c1nn(-c2ccccc2)c(-c2ccc([N+](=O)[O-])cc2)c1CNC(C)(C)C`, the GI50 is 220 µM in the data set on U-251 (48 h); 200 µM with 786-0 (48 h); 12 µM in the data set on K562 (48 h); 429 µM in the data set with NCI-H460 (Homo sapiens, NCI-H460, 48 h); 206 µM in the data set with MCF7 (Homo sapiens, MCF7, 48 h); above 592 µM with PC-3 (48 h). The figures for the GI50 in the data set with HT-29 (48 h) and in the data set with OVCAR-3 (48 h) were 71.3 µM and 8.78 µM, respectively. Besides, the 50% growth inhibitory concentration (GI50) at 48 h in data set [1] is 103 µM.

Consider `COc1cccc2c1C(=O)c1c(O)c3c(c(O)c1C2=O)C[C@@](O)(C(=O)CO)C[C@@H]3O[C@H]1C[C@H](N)[C@H](O)[C@H](C)O1` [DOXORUBICIN], for which the GI50 is below 0.046 µM in the data set on U-251 (Homo sapiens, U-251, 48 h); 0.06 µM with K562 (Homo sapiens, K562, 48 h); below 0.046 µM in the data set with NCI-H460 (Homo sapiens, NCI-H460, 48 h); below 0.046 µM with MCF7 (Homo sapiens, MCF7, 48 h); 0.42 µM in the data set with PC-3 (Homo sapiens, PC-3, 48 h); 0.26 µM in the data set on HT-29 (Homo sapiens, HT-29, 48 h). Also, the GI50 with OVCAR-3 (Homo sapiens, OVCAR-3, 48 h) was 0.09 µM. The GI50 at 48 h in data set [1] is below 0.046 µM.

The values above are taken from ChEMBL document CHEMBL4673302, “Efficient synthesis and antitumor evaluation of 4-aminomethyl-N-arylpyrazoles: Discovery of potent and selective agents for ovarian cancer” (Bioorg Med Chem, 2021).
